The values below come from ChEMBL document CHEMBL4184250, “Structure-activity studies of a macrocyclic peptide inhibitor of histone lysine demethylase 4A” (Bioorg Med Chem, 2018).

The source made the active and inactive calls. No cut-off for these calls is given here. Where a SMILES comes first, the peptide text is derived from it. Bridges are numbered along the chain shown (N, C = ends).

The target in data set [1] is T1, Lysine-specific demethylase 4C (Homo sapiens, UniProt Q9H3R0).
T1 sequence (Q9H3R0 whole entry): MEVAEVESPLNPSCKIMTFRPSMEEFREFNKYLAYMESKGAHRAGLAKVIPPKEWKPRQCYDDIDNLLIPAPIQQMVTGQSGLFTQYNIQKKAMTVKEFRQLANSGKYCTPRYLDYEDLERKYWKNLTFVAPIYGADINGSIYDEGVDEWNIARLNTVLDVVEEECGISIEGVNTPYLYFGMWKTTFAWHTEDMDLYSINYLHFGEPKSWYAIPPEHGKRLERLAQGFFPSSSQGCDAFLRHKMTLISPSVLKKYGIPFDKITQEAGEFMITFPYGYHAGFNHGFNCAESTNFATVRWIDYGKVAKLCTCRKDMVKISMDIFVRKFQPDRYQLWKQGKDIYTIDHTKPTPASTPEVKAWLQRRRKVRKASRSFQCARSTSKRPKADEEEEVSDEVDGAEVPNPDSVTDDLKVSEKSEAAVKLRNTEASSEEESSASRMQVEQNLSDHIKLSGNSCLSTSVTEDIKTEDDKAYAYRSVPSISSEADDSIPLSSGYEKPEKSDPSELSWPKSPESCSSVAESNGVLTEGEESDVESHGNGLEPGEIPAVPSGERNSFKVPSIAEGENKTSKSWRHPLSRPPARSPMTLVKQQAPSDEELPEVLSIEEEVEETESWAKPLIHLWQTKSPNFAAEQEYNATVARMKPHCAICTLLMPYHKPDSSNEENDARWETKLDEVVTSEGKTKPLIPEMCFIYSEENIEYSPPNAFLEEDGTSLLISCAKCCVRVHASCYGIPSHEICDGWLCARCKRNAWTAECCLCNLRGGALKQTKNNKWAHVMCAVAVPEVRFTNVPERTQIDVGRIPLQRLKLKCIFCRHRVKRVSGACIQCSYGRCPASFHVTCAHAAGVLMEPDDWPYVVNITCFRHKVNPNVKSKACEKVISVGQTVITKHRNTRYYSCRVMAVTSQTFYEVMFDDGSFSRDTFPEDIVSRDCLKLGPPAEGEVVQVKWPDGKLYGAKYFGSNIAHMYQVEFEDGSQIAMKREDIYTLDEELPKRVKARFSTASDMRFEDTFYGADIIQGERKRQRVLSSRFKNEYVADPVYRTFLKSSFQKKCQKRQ
Briefly: Inhibition of KDM4C (unknown origin) expressed in Escherichia coli using biotinylated peptide as substrate pretreated for 15 mins followed by substrate addition by Alphascreen assay.

Data set [2] addresses T2, Lysine-specific demethylase 4A (Homo sapiens, UniProt O75164).
T2 sequence (O75164 whole entry): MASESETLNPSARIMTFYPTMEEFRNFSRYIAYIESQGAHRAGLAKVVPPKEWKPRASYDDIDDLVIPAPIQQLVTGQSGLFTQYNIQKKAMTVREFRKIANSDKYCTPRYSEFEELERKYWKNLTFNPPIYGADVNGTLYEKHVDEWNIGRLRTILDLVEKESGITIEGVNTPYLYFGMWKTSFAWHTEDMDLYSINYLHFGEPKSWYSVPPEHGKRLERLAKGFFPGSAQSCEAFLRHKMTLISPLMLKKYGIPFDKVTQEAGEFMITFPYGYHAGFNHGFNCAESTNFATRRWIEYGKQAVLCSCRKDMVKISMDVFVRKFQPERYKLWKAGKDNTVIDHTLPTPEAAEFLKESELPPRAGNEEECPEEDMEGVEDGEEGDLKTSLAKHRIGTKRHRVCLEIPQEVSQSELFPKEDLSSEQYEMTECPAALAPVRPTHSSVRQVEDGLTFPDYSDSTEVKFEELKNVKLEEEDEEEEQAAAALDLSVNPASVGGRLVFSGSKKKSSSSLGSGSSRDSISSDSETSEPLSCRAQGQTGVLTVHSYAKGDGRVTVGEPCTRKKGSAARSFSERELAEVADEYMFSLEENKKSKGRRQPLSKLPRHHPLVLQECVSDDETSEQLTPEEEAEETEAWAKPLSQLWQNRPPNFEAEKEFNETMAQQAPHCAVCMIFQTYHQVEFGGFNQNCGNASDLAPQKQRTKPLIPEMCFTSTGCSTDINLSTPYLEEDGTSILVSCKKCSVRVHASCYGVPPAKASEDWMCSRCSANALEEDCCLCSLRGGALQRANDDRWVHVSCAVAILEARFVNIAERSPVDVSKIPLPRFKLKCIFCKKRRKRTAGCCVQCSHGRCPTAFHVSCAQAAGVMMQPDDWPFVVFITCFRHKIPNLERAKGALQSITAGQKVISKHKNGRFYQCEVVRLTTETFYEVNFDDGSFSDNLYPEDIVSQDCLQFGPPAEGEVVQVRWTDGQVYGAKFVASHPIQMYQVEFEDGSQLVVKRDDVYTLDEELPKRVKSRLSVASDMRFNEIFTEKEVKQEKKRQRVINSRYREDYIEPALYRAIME
Briefly: Binding affinity to N-terminal His6-tagged KDM4A (1 to 359 residues) (unknown origin) expressed in Escherichia coli BL21(DE3) Rosetta by bio-layer interferometric method. Particulars: read-out: Kd(app).

Data set [3] concerns the target T2, Lysine-specific demethylase 4A. Briefly: Stabilization of FLAG-tagged KDM4A (1 to 1064 residues) (unknown origin) expressed in human U2OS cells measured after 3 hrs by CETSA. The class given is cell-based.
For data set [4] the target is unchanged. Briefly: Inhibition of KDM4A (unknown origin) expressed in Escherichia coli using biotinylated peptide as substrate pretreated for 15 mins followed by substrate addition by Alphascreen assay.
A short description of data set [5]: Drug uptake in human MCF7 cells assessed as cell area stained at 10 uM after 3 hrs by Hoechst 33342 staining based confocal microscopic analysis. The class given is ADME. As to conditions: mcf7, 3 h.
Data set [6] has as its system HeLa. Briefly: Cytotoxicity against human HeLa cells expressing FLAG-tagged KDM4A assessed as condensed nucleus at 50 uM after 24 hrs by DAPI staining based immunofluorescence assay. It counts as cell-based.
Data set [7] has as its target T2, Lysine-specific demethylase 4A. Briefly: Inhibition of full length FLAG-tagged KDM4A (unknown origin) expressed in human HeLa cells assessed as increase in H3K9me3 levels after 24 hrs by DAPI staining based immunofluorescence assay. The class given is cell-based.
The test system of data set [8] is HeLa. Briefly: Cytotoxicity against human HeLa cells expressing FLAG-tagged KDM4A assessed as reduction in cell numbers at >5 uM after 24 hrs by DAPI staining based immunofluorescence assay.
Data set [9] has as its target T2, Lysine-specific demethylase 4A. Briefly: (§1) Binding affinity to biotinylated-KDM4A (unknown origin) at 300 nM by bio-layer interferometric method. Particulars: read-out: Kd(app).
Data set [10] deals with T3, Lysine-specific demethylase 4A (Homo sapiens) (UniProt O75164).
T3 sequence (whole entry): T2 sequence (O75164 whole entry)
The data set is described as §1.

The target in data set [11] is T3, Lysine-specific demethylase 4A (Homo sapiens). Briefly: Inhibition of full length FLAG-tagged KDM4A (unknown origin) expressed in human HeLa cells assessed as increase in H3K9me3 levels at >20 uM after 24 hrs by DAPI staining based immunofluorescence assay. It counts as cell-based.
Data set [12] can be described thus: Drug localization in lysosomes of human MCF7 cells at 10 uM after 3 hrs by Lysotracker red DND-99 staining based confocal microscopic analysis. It counts as ADME, subcellular, Lysosome. As to conditions: mcf7, 3 h.

On to `CC(C)[C@@H]1NC(=O)[C@@H](Cc2ccc(O)cc2)NC(=O)CSC[C@@H](C(N)=O)NC(=O)[C@H](Cc2c[nH]c3ccccc23)NC(=O)[C@H](Cc2ccc(O)cc2)NC(=O)[C@H](Cc2c[nH]c3ccccc23)NC(=O)[C@H](CCCNC(=N)N)NC(=O)[C@H](Cc2c[nH]c3ccccc23)NC(=O)CNC(=O)[C@H](CO)NC(=O)[C@H](CCCNC(=N)N)NC(=O)[C@H]([C@@H](C)O)NC(=O)[C@H](CC(N)=O)NC(=O)[C@H](Cc2ccc(O)cc2)NC1=O`, for which the IC50 is 46 nM in data set [1] and 41 nM in [4]. Also, the Kd in data set [2] was found to be 29.8 nM. In addition, the EC50 in data set [3] is above 100000 nM. Moreover, the Drug uptake in [5] was 17.4%.
In the case of `CC[C@H](C)[C@@H]1NC(=O)CNC(=O)[C@H](CO)NC(=O)[C@H](CCCNC(=N)N)NC(=O)[C@H](CCCNC(=N)N)NC(=O)[C@H](Cc2ccccc2)NC(=O)[C@H](CCCNC(=N)N)NC(=O)[C@H]([C@@H](C)O)NC(=O)[C@@H](Cc2ccc(O)cc2)NC(=O)CSC[C@@H](C(N)=O)NC(=O)[C@H](Cc2ccc(O)cc2)NC(=O)[C@H](Cc2ccc(O)cc2)NC(=O)[C@H](Cc2ccccc2)NC(=O)[C@H](C(C)C)NC1=O`, the Activity entry in data set [6] and in data set [8] was “Toxic” each time. The EC50 in data set [7] is above 50000 nM. In addition, the Kd in data set [9] came to 2.6 nM. Also, in [5], the Drug uptake was found to be 13.4%.
As for `CC[C@H](C)[C@@H]1NC(=O)[C@H](CCCNC(=N)N)NC(=O)[C@@H]2CCCN2C(=O)[C@H](Cc2ccc(O)cc2)NC(=O)CSC[C@@H](C(N)=O)N(C)C(=O)[C@H](Cc2c[nH]c3ccccc23)NC(=O)[C@H](CCCNC(=N)N)NC(=O)[C@H]([C@@H](C)CC)NC(=O)[C@@H](C)NC(=O)[C@H](CO)NC(=O)[C@H](CCCNC(=N)N)NC(=O)[C@H](CCCNC(=N)N)NC1=O`, in data set [7], the EC50 is above 50000 nM. Besides, the IC50 in data set [1] is 65 nM; in data set [4], 269 nM. The “Kd(app)” value in data set [10] is “inactive”. Also, the Drug uptake in [5] is listed as 1.2%.
In the case of `CC[C@H](C)[C@@H]1NC(=O)[C@H](CCCNC(=N)N)NC(=O)[C@H]([C@@H](C)CC)N(C)C(=O)[C@H](Cc2ccc(O)cc2)NC(=O)CSC[C@@H](C(N)=O)N(C)C(=O)[C@H](Cc2c[nH]c3ccccc23)NC(=O)[C@H](CC(C)C)NC(=O)[C@H](Cc2c[nH]c3ccccc23)NC(=O)[C@@H](C)NC(=O)[C@H](CO)NC(=O)[C@H](CCCNC(=N)N)NC(=O)[C@H](CCCNC(=N)N)NC1=O`, the EC50 in data set [7] is above 50000 nM. Further, the IC50 in [1] came to 27 nM; in data set [4], 17 nM. In addition, in [11], the inhibition result was “Active”. Further, the Kd in data set [9] is 23 nM. For the same compound, in [5], the Drug uptake stood at 7.4%.
For `CC[C@H](C)[C@@H]1NC(=O)CNC(=O)[C@H](CO)NC(=O)[C@H](CCCNC(=N)N)NC(=O)[C@H](CCCNC(=N)N)NC(=O)[C@H](Cc2ccccc2)NC(=O)[C@H](CCCNC(=N)N)NC(=O)[C@H]([C@H](C)O)NC(=O)[C@@H](Cc2ccc(O)cc2)NC(=O)CSC[C@@H](C(N)=O)NC(=O)[C@H](Cc2ccc(O)cc2)NC(=O)[C@H](Cc2ccc(O)cc2)NC(=O)[C@H](Cc2ccccc2)NC(=O)[C@H](C(C)C)NC1=O`, the inhibition entry in [11] was “Active”.
With `N=C(N)NCCC[C@@H]1NC(=O)CNC(=O)[C@H](Cc2ccc(O)cc2)NC(=O)CSC[C@@H](C(N)=O)NC(=O)[C@H](CCCNC(=N)N)NC(=O)[C@H](CCCNC(=N)N)NC(=O)[C@H](CCCNC(=N)N)NC(=O)[C@H](CCC(N)=O)NC(=O)[C@H](CCCNC(=N)N)NC(=O)[C@H](CCCCN)NC(=O)[C@H](CCCCN)NC(=O)[C@H](CCCCN)NC1=O` ({CH2CO}-YGRKKKRQRRRC-NH2; thioether N-12), the Drug uptake result in data set [12] and in [5] was “Active” in each case.
For the compound `CC[C@H](C)[C@@H]1NC(=O)[C@H](CCCNC(=N)N)NC(=O)[C@H]([C@@H](C)CC)NC(=O)[C@H](Cc2ccc(O)cc2)NC(=O)CSC[C@@H](C(N)=O)NC(=O)[C@H](Cc2c[nH]c3ccccc23)NC(=O)[C@H](CC(C)C)NC(=O)[C@H](Cc2c[nH]c3ccccc23)NC(=O)CNC(=O)[C@H](CO)NC(=O)[C@H](CCCNC(=N)N)NC(=O)[C@H](CCCNC(=N)N)NC1=O` ({CH2CO}-YIRIRRSGWLWC-NH2; thioether N-12), the EC50 in data set [7] was above 50000 nM. Further, the concentration for half-maximal inhibition (IC50) in data set [1] and in [4] was 23 nM in each case. In data set [9], the Kd is 42 nM. Also, the Drug uptake entry is on record as “Active” in data set [12] and 65.3% in data set [5].
With `CC[C@H](C)[C@@H]1NC(=O)CNC(=O)[C@H](CO)NC(=O)[C@H](CCCNC(=N)N)NC(=O)[C@H](CCCNC(=N)N)NC(=O)[C@H]([C@@H](C)CC)NC(=O)[C@H](CCCNC(=N)N)NC(=O)[C@@H]2CCCN2C(=O)[C@H](Cc2ccc(O)cc2)NC(=O)CSC[C@@H](C(N)=O)NC(=O)[C@H](Cc2c[nH]c3ccccc23)NC(=O)[C@H](CCCNC(=N)N)NC1=O` ({CH2CO}-YPRIRRSGIRWC-NH2; thioether N-12), the EC50 in data set [7] was above 50000 nM. Further, the values for the IC50 in data set [1] and in [4] were 466 nM and 615 nM, respectively. In addition, in data set [9], the Kd was above 300 nM. Further, the figures for the Drug uptake entry in data set [12] and in [5] were “Active” and 76.8%, respectively.
